Assay results reported in PMC5772648, “Targeted NUDT5 inhibitors block hormone signaling in breast cancer cells” (Nature Communications, 2018).
pEC50, pIC50: −log10 of the molar value.

How the values were obtained:
[1] = biological target: T1, NUDT5 in HL-60 cells (Homo sapiens, UniProt Q9UKK9); experiment: isothermal dose-response fingerprint CETSA (ITDRFCETSA); assay type: cell-based; settings: 20 to 0.06 µM
T1 construct: endogenous in cells; host or cells: HL-60
Experimental: Treatments, heating and lysis procedures for ITDRFCETSA were performed identically to those for CETSA experiments, except NUDT5 inhibitors were added to cells at serial dilutions from 20 to 0.06 µM. Curves were fit by sigmoidal dose-response (variable slope) to derive EC50 values in GraphPad Prism 7.

[2] = biological target: T2, human NUDT5 (Homo sapiens, UniProt Q9UKK9); experiment: enzyme-coupled malachite green assay (MG assay), ADPR hydrolysis; assay type: biochemical; settings: NUDT5, ADPR substrate; read-out: MG assay IC50 (Biochemical IC50)
T2 construct: His-tag (N); made in house; host or cells: E. coli BL21 (DE3) R3 pRARE2
Text: We next sought to develop small molecule NUDT5 inhibitors to further probe the role of NUDT5 in ADPR metabolism. A high-throughput, screening-compatible NUDT5 inhibition assay was established using slight modifications to the aforementioned MG procedure (Fig. 2a)[15],[27]. Briefly, ADPR, NUDT5 and calf intestinal alkaline phosphatase (CIP) were combined in a coupled enzymatic assay, as described in the online methods. In turn, ADPR was hydrolyzed to AMP and R5P by NUDT5, and the released R5P was further degraded to ribose and inorganic phosphate (Pi) by CIP. Free Pi was subsequently detected using the malachite green reagent. The screen was conducted using a combination of the Chemical Biology Consortium of Sweden (CBCS) primary screening set and several commercial libraries from Enamine, TimTec, Maybridge and ChemDiv. In total, ~72 000 distinct chemical entities were screened for their potential inhibition of NUDT5 at a concentration of 10 µM (Supplementary Table 1, Supplementary Fig. 2a, b). Execution of this screening campaign was split between two different occasions. The screening performance in the two screening campaigns was excellent (average z´ factors of 0.87 and 0.85, Supplementary Fig. 2c), resulting in a hit limit as defined by the average and three standard deviations of the library compound responses of 10.1 and 18.4% inhibition, respectively (Supplementary Table 1, Supplementary Fig. 2a, b). This translated to 53 and 475 hits (0.3 and 0.8% hit rate, respectively), yielding 528 total hits from the 2 separate screening occasions.
Activity of NUDT5 and MTH1 with a panel of potential substrates [2-OH-ATP, 2-OH-dATP, 8-oxo-dGDP, GDP and 8-oxo-GTP (Jena Biosciences), 8-oxo-dGTP (TriLink Biotechnologies), dATP (ThermoFisher Scientific), dGTP, GTP and ADPR (Sigma-Aldrich)] was assessed in reaction buffer (100 mM Tris Acetate pH 7.5, 40 mM NaCl, 10 mM Mg Acetate) at 22 °C. For ADPR, alkaline phosphatase from bovine intestinal mucosa (10 U/ml; Sigma-Aldrich) was added as coupled enzyme, while other substrates were coupled to E. coli pyrophosphatase (0.2 U/mL, Sigma-Aldrich). After 30 min incubation with shaking, formed inorganic phosphate was detected by addition of malachite green reagent. Absorbance at 630 nm was read after 15 min incubation with shaking using a Hidex Sense plate reader. The potency of NUDT5 inhibitors was assessed similarly as above (and in the screening campaign) by monitoring ADPR hydrolysis; details are in the Supplementary Information.
Small molecule library composition
The screen for NUDT5 inhibitors was conducted at Chemical Biology Consortium Sweden (www.cbcs.se). Two screening campaigns completed in August 2012 and in March 2013 respectively comprised a combination of in-house and commercially available libraries, amounting to a total of 75679 compounds. The commercial compounds originate from Enamine, TimTec, MayBridge and ChemDiv. The in-house libraries were donated by Biovitrum AB, Sweden (the origin and composition is described previously)2. For long-term storage, the compounds are kept frozen at - 20°C as 10 mM solutions in dimethyl sulfoxide (DMSO) under low humidity conditions in REMP 96 Storage Tube Racks in a REMP Small-Size Store™. To facilitate screening an aliquot of the stock solutions have been transferred to Labcyte 384 LDV plates (LP-0200) to enable dispensing using an Echo 550™ acoustic liquid handler (LabCyte). For both screening campaigns 40 nl of the compound solutions were dispensed directly into columns 1-22 of the 384-well assay plates (Nunc 242757), while columns 23 and 24 were reserved for controls as outlined below. The plates were sealed with a Peelable Aluminium seal (Agilent 24210-001) using a PlateLoc thermal microplate sealer (Agilent) and kept at room temperature until used. The final compound concentration in the screen was 10 µM with a final DMSO concentration of […]
Enzymatic assay applied for screening and hit confirmation […]

[3] = test system: U-2 OS cells; experiment: DNA damage signaling by immunofluorescence (γH2A.X, 53BP1, RPA); assay type: cell-based; settings: 10 µM, 72 h
Experimental: Following siRNA knockdown for 48 h, 10 000 U-2 OS cells were seeded per well in black, clear-bottomed 96-well plates (BD Falcon) and allowed to grow for an additional 48 h. For inhibitor treatment experiments, cells were plated at 2000 per well and 10 µM TH5427 was added the following day for an additional 72 h. Cells were washed with PBS and then fixed with 4% paraformaldehyde in PBS (Santa Cruz) with 0.5% Triton X-100 for 15 min. Primary antibodies were γH2A.X (Millipore, 1:1000 or Cell Signaling, 1:1000), 53BP1 (Bethyl, 1:1000 or Abcam, 1:500) and RPA32 (Cell Signaling, 1:1000) diluted in 3% BSA/PBS and incubated at 4 °C overnight. Alexa Fluor secondary antibodies (ThermoFisher) were used at 1:1000 diluted in 3% BSA/PBS for 1 h at room temperature. DNA was counterstained with DAPI and plates were visualized using an ImageXpress high-throughput microscope (Molecular Devices) with 20x objective. Image analysis was performed with CellProfiler software (Broad Institute).

With `CCN1CCN(c2nc3c(c(=O)n(C)c(=O)n3C)n2Cc2nnc(-c3ccc(Cl)c(Cl)c3)o2)CC1` [TH5424] the “ITDRFCETSA dose-dependent stabilization” value [1] was “could also dose-dependently stabilize NUDT5, however much higher concentrations were required” and the pIC50 [2] was 7.41.

For `Cn1c(=O)c2c(nc(N3CCNCC3)n2Cc2nnc(-c3ccc(Cl)c(Cl)c3)o2)n(C)c1=O` [TH5427], the pEC50 ([1]; read-out: ITDRFCETSA apparent EC50) was 5.68, the “DNA damage signaling” value [3] was “neither induced significant DNA damage signaling” and the pIC50 [2] was 7.54.
